Measurements published in PubChem BioAssay AID248 (DTP/NCI, 2004).
“And” between values parts separate entries of the source, which are not always exact repeats. Equal values may be shown once. Toxic doses and inconclusive results are not listed. No stated cut-off is given here; in the data, active means T/C of 150% or more; inactive means T/C below 125%.

Test system: L1210 leukemia ip in BDF1 mice, survival T/C
Assay: NCI In Vivo Anticancer Drug Screen. Data for tumor model L1210 Leukemia (intraperitoneal) in B6D2F1 (BDF1) mice
Conditions: endpoint: mean survival time, higher = longer survival
Method in brief: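 Survival endpoint. Drug-treated group vs vehicle group, expressed as T divided by C. Tumor passaged by transplantation.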

[1] = dose: 200.0 mg/kg/injection, schedule: Q01DX009 (ip), vehicle: saline with Tween-80
[2] = dose: 400.0 mg/kg/injection, schedule: Q01DX009 (ip), vehicle: saline with Tween-80
[3] = dose: 100.0 mg/kg/injection, schedule: Q04DX003 (ip), vehicle: saline
[4] = dose: 200.0 mg/kg/injection, schedule: Q04DX003 (ip), vehicle: saline
[5] = dose: 400.0 mg/kg/injection, schedule: Q04DX003 (ip), vehicle: saline
[6] = dose: 25.0 mg/kg/injection, schedule: Q04DX003 (ip), vehicle: saline
[7] = dose: 50.0 mg/kg/injection, schedule: Q04DX003 (ip), vehicle: saline
[8] = dose: 100.0 mg/kg/injection, schedule: Q01DX009 (ip), vehicle: saline with Tween-80
[9] = dose: 100.0 mg/kg/injection, schedule: Q04DX002 (ip), vehicle: saline with Tween-80
[10] = dose: 200.0 mg/kg/injection, schedule: Q04DX002 (ip), vehicle: saline with Tween-80
[11] = dose: 400.0 mg/kg/injection, schedule: Q04DX002 (ip), vehicle: saline with Tween-80
[12] = dose: 100.0 mg/kg/injection, schedule: Q04DX003 (ip), vehicle: Klucel (hydroxypropylcellulose) (HPC)
[13] = dose: 200.0 mg/kg/injection, schedule: Q04DX003 (ip), vehicle: Klucel (hydroxypropylcellulose) (HPC)
[14] = dose: 400.0 mg/kg/injection, schedule: Q04DX003 (ip), vehicle: Klucel (hydroxypropylcellulose) (HPC)
[15] = dose: 100.0 mg/kg/injection, schedule: Q01DX009 (ip), vehicle: Klucel (hydroxypropylcellulose) (HPC)
[16] = dose: 200.0 mg/kg/injection, schedule: Q01DX009 (ip), vehicle: Klucel (hydroxypropylcellulose) (HPC)
[17] = dose: 400.0 mg/kg/injection, schedule: Q01DX009 (ip), vehicle: Klucel (hydroxypropylcellulose) (HPC)
[18] = dose: 25.0 mg/kg/injection, schedule: Q01DX009 (ip), vehicle: saline
[19] = dose: 50.0 mg/kg/injection, schedule: Q01DX009 (ip), vehicle: saline
[20] = dose: 75.0 mg/kg/injection, schedule: Q01DX001 (ip), vehicle: saline
[21] = dose: 150.0 mg/kg/injection, schedule: Q01DX001 (ip), vehicle: saline
[22] = dose: 300.0 mg/kg/injection, schedule: Q01DX001 (ip), vehicle: saline

Measured: T/C

C[C@@H]1CCC([C@@H](C)[C@H]2CC[C@H]3[C@@H]4CC[C@H]5C[C@@H](O)CC[C@]5(C)[C@H]4CC[C@]23C)=NC1
inactive: dose: 1.56 mg/kg/injection, schedule: Q01DX015 (ip), vehicle: saline 94 % of control | dose: 3.13 mg/kg/injection, schedule: Q01DX015 (ip), vehicle: saline 97 % of control | dose: 6.25 mg/kg/injection, schedule: Q01DX015 (ip), vehicle: saline 94 % of control | dose: 12.5 mg/kg/injection, schedule: Q01DX015 (ip), vehicle: saline 94 % of control | dose: 12.5 mg/kg/injection, schedule: Q01DX Z (ip), vehicle: saline 93 % of control | dose: 25.0 mg/kg/injection, schedule: Q01DX Z (ip), vehicle: saline 106 % of control | dose: 50.0 mg/kg/injection, schedule: Q01DX Z (ip), vehicle: saline 93 % of control | dose: 100.0 mg/kg/injection, schedule: Q01DX Z (ip), vehicle: saline 97 % of control | dose: 125.0 mg/kg/injection, schedule: Q01DX001 (ip), vehicle: saline 93 % of control

COc1cc(/C=C2\NC(=O)NC2=O)ccc1O
inactive: [1] 86 % of control | [2] 90 % of control

OCNC(=S)SSC(=S)NCO
inactive: [3] 96 % of control | [4] 98 % of control | [5] 98 % of control

C[N+](C)(C)c1ncncn1
inactive: dose: 12.0 mg/kg/injection, schedule: Q04DX003 (ip), vehicle: saline 98 % of control | [6] 98 % of control | [7] 104 % of control

Cc1c(-c2ccccc2)sc(/N=C/c2cc(Br)cc(Br)c2O)c1C#N
inactive: [8] 99 % of control and 111 % of control | [9] 112 % of control and 90 % of control | [1] 97 % of control and 86 % of control | [10] 93 % of control and 102 % of control | [2] 94 % of control | [11] 106 % of control and 107 % of control

CCC(C)C(CC(=O)O)C(=O)O (stereo not drawn)
inactive: [3] 97 % of control | [4] 94 % of control | [5] 92 % of control

O=C(CCc1ccncc1)Nc1ccccc1
inactive: [12] 100 % of control | [13] 96 % of control | [14] 100 % of control

C=CCS(=O)(=O)c1ccc(C)cc1
inactive: [12] 102 % of control | [13] 100 % of control | [14] 100 % of control

O=c1c2nccnc2[nH]n1-c1ccccc1
inactive: dose: 25.0 mg/kg/injection, schedule: Q04DX003 (ip), vehicle: Klucel (hydroxypropylcellulose) (HPC) 90 % of control | dose: 50.0 mg/kg/injection, schedule: Q04DX003 (ip), vehicle: Klucel (hydroxypropylcellulose) (HPC) 95 % of control

CC(C)C1CCC(C(=O)O)CC1 (stereo not drawn)
inactive: [15] 102 % of control | [12] 96 % of control | [16] 95 % of control | [13] 100 % of control | [17] 97 % of control | [14] 103 % of control

Cc1c(O)ccc(C(=O)CCl)c1O
inactive: dose: 12.0 mg/kg/injection, schedule: Q01DX009 (ip), vehicle: saline with Tween-80 100 % of control | dose: 25.0 mg/kg/injection, schedule: Q01DX009 (ip), vehicle: saline with Tween-80 102 % of control and 107 % of control | [12] 106 % of control | [13] 102 % of control

CCOC(=O)Cc1cc(=O)[nH][nH]c1=O
inactive: dose: 150.0 mg/kg/injection, schedule: Q04DX002 (ip), vehicle: Klucel (hydroxypropylcellulose) (HPC) 95 % of control | dose: 300.0 mg/kg/injection, schedule: Q04DX002 (ip), vehicle: Klucel (hydroxypropylcellulose) (HPC) 95 % of control

Nc1ccccc1SC1CC(=O)N(c2cccc(Cl)c2)C1=O (stereo not drawn)
inactive: [15] 91 % of control | [12] 94 % of control | [16] 92 % of control | [13] 95 % of control | [17] 91 % of control | [14] 94 % of control

Cc1cnc(Cl)[nH]1 (tested in a mixture with another compound)
inactive: [9] 100 % of control | [10] 113 % of control | [11] 113 % of control

COc1ccccc1NC(=O)NCCCCCCNC(=O)Nc1ccccc1OC
inactive: [15] 89 % of control | [16] 92 % of control | [17] 94 % of control

CC(C)NNC(=O)c1ccncc1
inactive: [6] 107 % of control | [7] 102 % of control | [3] 96 % of control | [4] 98 % of control | [5] 104 % of control

CN(C)CCN1C(=O)c2ccccc2C(C(C)(C)[N+](=O)[O-])c2ccccc21 (stereo not drawn)
inactive: [12] 102 % of control | [13] 98 % of control | [14] 93 % of control

CCN(CC)CCCC(C)Nc1c2ccc(Cl)cc2nc2cc(Cl)ccc12 (stereo not drawn)
inactive: [18] 92 % of control | [6] 100 % of control | [19] 95 % of control | [7] 98 % of control | [3] 93 % of control and 86 % of control

CN(C)C1c2cccn2-c2ccccc2S(=O)(=O)C1c1ccccc1[N+](=O)[O-] (stereo not drawn)
inactive: [13] 98 % of control | [14] 96 % of control

COC(=O)NC1CCCC1I (stereo not drawn)
inactive: [20] 102 % of control | [21] 109 % of control | [22] 98 % of control

CCOC(=O)C(C(=O)OCC)C1c2ccccc2NC(=O)c2ccccc21 (stereo not drawn)
inactive: [15] 100 % of control | [12] 90 % of control | [16] 100 % of control | [13] 90 % of control | [17] 91 % of control | [14] 88 % of control

Clc1cc(CBr)c(CBr)cc1Cl
inactive: dose: 12.5 mg/kg/injection, schedule: Q04DX003 (ip), vehicle: saline with Tween-80 94 % of control | dose: 25.0 mg/kg/injection, schedule: Q04DX003 (ip), vehicle: saline with Tween-80 97 % of control | dose: 50.0 mg/kg/injection, schedule: Q04DX003 (ip), vehicle: saline with Tween-80 91 % of control

O=C(O)c1cccc2ccccc12
inactive: [8] 89 % of control | [1] 100 % of control

CN(C)C1CC1c1ccccc1 (stereo not drawn)
inactive: dose: 6.25 mg/kg/injection, schedule: Q01DX009 (ip), vehicle: saline 106 % of control | dose: 12.5 mg/kg/injection, schedule: Q01DX009 (ip), vehicle: saline 95 % of control | [18] 95 % of control | [6] 100 % of control | [19] 106 % of control | [7] 100 % of control | [3] 100 % of control

COc1cc(O)c(/C=N\N=C\c2ccco2)c(OC)c1
inactive: [20] 90 % of control | [21] 90 % of control | [22] 86 % of control

O=C1c2ccccc2-c2cccc(I)c21
inactive: dose: 100.0 mg/kg/injection, schedule: Q01DX001 (ip), vehicle: carboxymethylcellulose (CMC) 99 % of control | dose: 200.0 mg/kg/injection, schedule: Q01DX001 (ip), vehicle: carboxymethylcellulose (CMC) 101 % of control | dose: 400.0 mg/kg/injection, schedule: Q01DX001 (ip), vehicle: carboxymethylcellulose (CMC) 92 % of control

Cc1ccc(Cl)cc1NC(=O)C(Br)C(Br)c1ccccc1 (stereo not drawn)
inactive: [15] 100 % of control | [16] 96 % of control | [17] 104 % of control
